“And” between values parts separate entries of the source, which are not always exact repeats. Equal values may be shown once. Toxic doses and inconclusive results are not listed.
System: L1210 leukemia ip in BDF1 mice, survival T/C
Test: NCI In Vivo Anticancer Drug Screen. Data for tumor model L1210 Leukemia (intraperitoneal) in B6D2F1 (BDF1) mice
Conditions: higher = longer survival
In short: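 Mice bearing the transplanted tumor received compound or vehicle. Survival of the treated group was divided by that of the vehicle-treated control group to give the ratio.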

[1] = endpoint: mean survival time, dose: 100.0 mg/kg/injection, schedule: Q01DX009 (ip), vehicle: saline
[2] = endpoint: mean survival time, dose: 200.0 mg/kg/injection, schedule: Q01DX009 (ip), vehicle: saline
[3] = endpoint: mean survival time, dose: 400.0 mg/kg/injection, schedule: Q01DX009 (ip), vehicle: saline
[4] = endpoint: mean survival time, dose: 100.0 mg/kg/injection, schedule: Q04DX003 (ip), vehicle: saline
[5] = endpoint: mean survival time, dose: 200.0 mg/kg/injection, schedule: Q04DX003 (ip), vehicle: saline
[6] = endpoint: mean survival time, dose: 400.0 mg/kg/injection, schedule: Q04DX003 (ip), vehicle: saline
[7] = endpoint: mean survival time, dose: 100.0 mg/kg/injection, schedule: Q04DX003 (ip), vehicle: Klucel (hydroxypropylcellulose) (HPC)
[8] = endpoint: mean survival time, dose: 200.0 mg/kg/injection, schedule: Q04DX003 (ip), vehicle: Klucel (hydroxypropylcellulose) (HPC)
[9] = endpoint: mean survival time, dose: 400.0 mg/kg/injection, schedule: Q04DX003 (ip), vehicle: Klucel (hydroxypropylcellulose) (HPC)
[10] = endpoint: mean survival time, dose: 100.0 mg/kg/injection, schedule: Q01DX009 (ip), vehicle: Klucel (hydroxypropylcellulose) (HPC)
[11] = endpoint: mean survival time, dose: 200.0 mg/kg/injection, schedule: Q01DX009 (ip), vehicle: Klucel (hydroxypropylcellulose) (HPC)
[12] = endpoint: mean survival time, dose: 400.0 mg/kg/injection, schedule: Q01DX009 (ip), vehicle: Klucel (hydroxypropylcellulose) (HPC)
[13] = endpoint: mean survival time, dose: 100.0 mg/kg/injection, schedule: Q01DX001 (ip), vehicle: saline
[14] = endpoint: mean survival time, dose: 200.0 mg/kg/injection, schedule: Q01DX001 (ip), vehicle: saline
[15] = endpoint: mean survival time, dose: 400.0 mg/kg/injection, schedule: Q01DX001 (ip), vehicle: saline
[16] = endpoint: mean survival time, dose: 100.0 mg/kg/injection, schedule: Q04DX002 (ip), vehicle: Klucel (hydroxypropylcellulose) (HPC)
[17] = endpoint: mean survival time, dose: 200.0 mg/kg/injection, schedule: Q04DX002 (ip), vehicle: Klucel (hydroxypropylcellulose) (HPC)

`N#C[C@H](OC1OC(COC2OC(CO)C(O)C(O)C2O)C(O)C(O)C1O)c1ccccc1` (stereo not given in full) was tested, and the T/C [1] was 102 % of control, the T/C [2] was 101 % of control and the T/C [3] was 98 % of control. The T/C (endpoint: median survival time, dose: 25.0 mg/kg/injection, schedule: Q01DX009 (ip), vehicle: water) was 101 % of control, the T/C (endpoint: median survival time, dose: 25.0 mg/kg/injection, schedule: Q01DX Z (ip), vehicle: water) was 100 % of control and the T/C (endpoint: median survival time, dose: 50.0 mg/kg/injection, schedule: Q01DX009 (ip), vehicle: water) was 92 % of control. The T/C (endpoint: median survival time, dose: 50.0 mg/kg/injection, schedule: Q01DX Z (ip), vehicle: water) was 87 % of control, the T/C (endpoint: median survival time, dose: 100.0 mg/kg/injection, schedule: Q01DX009 (ip), vehicle: water) was 51 % of control and the T/C (endpoint: median survival time, dose: 200.0 mg/kg/injection, schedule: Q01DX009 (ip), vehicle: water) was 51 % of control. The T/C (endpoint: median survival time, dose: 400.0 mg/kg/injection, schedule: Q01DX009 (ip), vehicle: water) was 93 % of control and the T/C (endpoint: median survival time, dose: 400.0 mg/kg/injection, schedule: Q01DX Z (ip), vehicle: water) was 87 % of control.

`CCOC(=O)CCc1ccc(O)c(O)c1` was tested, and the T/C [1] was 100 % of control, the T/C [4] was 92 % of control and the T/C [2] was 102 % of control. For the same molecule, the T/C [5] was 111 % of control and the T/C [6] was 101 % of control.

With `OCC1CCCCC1Cc1ccc(F)c2ccccc12` (stereo not given) the T/C (endpoint: mean survival time, dose: 100.0 mg/kg/injection, schedule: Q01DX001 (ip), vehicle: Klucel (hydroxypropylcellulose) (HPC)) was 98 % of control, the T/C (endpoint: mean survival time, dose: 200.0 mg/kg/injection, schedule: Q01DX001 (ip), vehicle: Klucel (hydroxypropylcellulose) (HPC)) was 93 % of control and the T/C (endpoint: mean survival time, dose: 400.0 mg/kg/injection, schedule: Q01DX001 (ip), vehicle: Klucel (hydroxypropylcellulose) (HPC)) was 102 % of control.

For `Cc1ccc(S(=O)(=O)N(CC(=O)O)c2cccc(Cl)c2)cc1`, the T/C [7] was 91 % of control, the T/C [8] was 96 % of control and the T/C [9] was 100 % of control.

With `CCN(CCNc1cc(C)nc(/N=C(\N)Nc2ccc(Cl)c(Cl)c2)n1)CC(C)(C)O` the T/C (endpoint: mean survival time, dose: 75.0 mg/kg/injection, schedule: Q01DX001 (ip), vehicle: other) was 93 % of control, the T/C (endpoint: mean survival time, dose: 150.0 mg/kg/injection, schedule: Q01DX001 (ip), vehicle: other) was 95 % of control and the T/C (endpoint: mean survival time, dose: 300.0 mg/kg/injection, schedule: Q01DX001 (ip), vehicle: other) was 104 % of control.

For `CCCCCCCCCCCCCCCCCC(=O)N/N=C/c1ccc(Cl)cc1`, the T/C [10] was 101 % of control and 88 % of control, the T/C [11] was 102 % of control and the T/C [12] was 98 % of control and 92 % of control.

With `CC(C)(C)C(=O)C1C(=O)c2ccccc2C1=O` the T/C (endpoint: mean survival time, dose: 0.25 mg/kg/injection, schedule: Q01DX009 (ip), vehicle: Klucel (hydroxypropylcellulose) (HPC)) was 101 % of control, the T/C (endpoint: mean survival time, dose: 0.25 mg/kg/injection, schedule: Q04DX003 (ip), vehicle: Klucel (hydroxypropylcellulose) (HPC)) was 95 % of control and the T/C (endpoint: mean survival time, dose: 0.5 mg/kg/injection, schedule: Q01DX009 (ip), vehicle: Klucel (hydroxypropylcellulose) (HPC)) was 95 % of control. For the same molecule, the T/C (endpoint: mean survival time, dose: 0.5 mg/kg/injection, schedule: Q04DX003 (ip), vehicle: Klucel (hydroxypropylcellulose) (HPC)) was 101 % of control, the T/C (endpoint: mean survival time, dose: 1.0 mg/kg/injection, schedule: Q01DX009 (ip), vehicle: Klucel (hydroxypropylcellulose) (HPC)) was 104 % of control and the T/C (endpoint: mean survival time, dose: 1.0 mg/kg/injection, schedule: Q04DX003 (ip), vehicle: Klucel (hydroxypropylcellulose) (HPC)) was 100 % of control.

For `CC(=O)[C@H]1CC[C@H]2[C@@H]3CCC4=CC(=O)CC[C@]4(C)[C@H]3CC[C@]12C`, the T/C (endpoint: mean survival time, dose: 125.0 mg/kg/injection, schedule: Q01DX Z (sc), vehicle: steriod suspending solution) was 97 % of control, the T/C (endpoint: mean survival time, dose: 250.0 mg/kg/injection, schedule: Q01DX Z (sc), vehicle: steriod suspending solution) was 91 % of control and the T/C (endpoint: mean survival time, dose: 500.0 mg/kg/injection, schedule: Q01DX Z (sc), vehicle: steriod suspending solution) was 96 % of control. The T/C (endpoint: mean survival time, dose: 1000.0 mg/kg/injection, schedule: Q01DX Z (sc), vehicle: steriod suspending solution) was 92 % of control.

`Brc1cccc[n+]1CCCC[n+]1ccccc1Br` was tested, and the T/C (endpoint: mean survival time, dose: 2.2 mg/kg/injection, schedule: Q01DX Z (ip), vehicle: saline) was 96 % of control, the T/C (endpoint: mean survival time, dose: 3.3 mg/kg/injection, schedule: Q01DX Z (ip), vehicle: saline) was 100 % of control and the T/C (endpoint: mean survival time, dose: 5.0 mg/kg/injection, schedule: Q01DX Z (ip), vehicle: saline) was 87 % of control. For the same molecule, the T/C (endpoint: mean survival time, dose: 10.0 mg/kg/injection, schedule: Q01DX001 (ip), vehicle: saline) was 96 % of control and the T/C (endpoint: mean survival time, dose: 20.0 mg/kg/injection, schedule: Q01DX001 (ip), vehicle: saline) was 93 % of control.

In the case of `N#CCN(CC#N)CCN(CC#N)CCN(CC#N)CC#N`, the T/C [13] is reported as 104 % of control, the T/C [14] is reported as 104 % of control and the T/C [15] is reported as 95 % of control.

For `NC(N)=N/N=C\c1ccccc1/C=N/N=C(N)N`, the T/C (endpoint: mean survival time, dose: 15.0 mg/kg/injection, schedule: Q01DX Z (ip), vehicle: saline) was 111 % of control, the T/C (endpoint: mean survival time, dose: 15.0 mg/kg/injection, schedule: Q01DX Z (oral), vehicle: saline) was 116 % of control and the T/C (endpoint: mean survival time, dose: 30.0 mg/kg/injection, schedule: Q01DX Z (ip), vehicle: saline) was 110 % of control. For the same molecule, the T/C (endpoint: mean survival time, dose: 30.0 mg/kg/injection, schedule: Q01DX Z (oral), vehicle: saline) was 111 % of control, the T/C (endpoint: mean survival time, dose: 60.0 mg/kg/injection, schedule: Q01DX Z (oral), vehicle: saline) was 102 % of control and the T/C (endpoint: mean survival time, dose: 120.0 mg/kg/injection, schedule: Q01DX Z (oral), vehicle: saline) was 111 % of control.

With `CC(=O)Oc1cn(Cc2ccccc2)c2c1C(=O)CC(C)C2` (stereo not given) the T/C (endpoint: mean survival time, dose: 50.0 mg/kg/injection, schedule: Q04DX002 (ip), vehicle: Klucel (hydroxypropylcellulose) (HPC)) was 108 % of control, the T/C [16] was 94 % of control and the T/C [17] was 102 % of control.

With `Cc1cc(OCCOC(=O)Nc2ccccc2F)cc(C)c1Cl` the T/C [10] was 93 % of control, the T/C [11] was 101 % of control and the T/C [12] was 103 % of control.

In the case of `Cc1cc2c([N+](=O)[O-])c3ccc(Cl)nn3c2n[n+]1[O-]`, the T/C (endpoint: mean survival time, dose: 62.5 mg/kg/injection, schedule: Q04DX002 (ip), vehicle: Klucel (hydroxypropylcellulose) (HPC)) is reported as 106 % of control, the T/C (endpoint: mean survival time, dose: 125.0 mg/kg/injection, schedule: Q04DX002 (ip), vehicle: Klucel (hydroxypropylcellulose) (HPC)) is reported as 114 % of control and the T/C (endpoint: mean survival time, dose: 250.0 mg/kg/injection, schedule: Q04DX002 (ip), vehicle: Klucel (hydroxypropylcellulose) (HPC)) is reported as 95 % of control.

For `O=C1/C(=C\c2ccccc2)SC(=Nc2ccccc2)N1c1ccccc1`, the T/C [10] was 101 % of control, the T/C [7] was 104 % of control and the T/C [11] was 98 % of control. The T/C [8] was 96 % of control, the T/C [12] was 93 % of control and the T/C [9] was 94 % of control.

With `CC(C)(CCC#N)C1OCCO1` the T/C [1] was 106 % of control, the T/C [4] was 98 % of control and the T/C [2] was 102 % of control. For the same molecule, the T/C [5] was 105 % of control, the T/C [3] was 102 % of control and the T/C [6] was 96 % of control.

In the case of `O=C1CC(C(=O)Nc2ccccc2)C(c2ccccc2)(c2ccccc2)O1` (stereo not given), the T/C (endpoint: mean survival time, dose: 100.0 mg/kg/injection, schedule: Q01DX001 (ip), vehicle: carboxymethylcellulose (CMC)) is reported as 97 % of control, the T/C (endpoint: mean survival time, dose: 200.0 mg/kg/injection, schedule: Q01DX001 (ip), vehicle: carboxymethylcellulose (CMC)) is reported as 106 % of control and the T/C (endpoint: mean survival time, dose: 400.0 mg/kg/injection, schedule: Q01DX001 (ip), vehicle: carboxymethylcellulose (CMC)) is reported as 95 % of control.

With `Nc1nc2nc(-c3ccc([N+](=O)[O-])cc3)nc(N)c2nc1-c1ccc(N(CCO)CCO)cc1` the T/C [13] was 90 % of control, the T/C [14] was 95 % of control and the T/C [15] was 95 % of control.

In the case of `CC1=C2CC3CCC(C)C2(CC1)C3(C)C` (stereo not given), the T/C [1] is reported as 88 % of control and the T/C [3] is reported as 87 % of control.

For `CN(Cc1cccc(Cl)c1)C(=O)NC(C)(C)C`, the T/C [16] was 100 % of control, the T/C [17] was 96 % of control and the T/C (endpoint: mean survival time, dose: 400.0 mg/kg/injection, schedule: Q04DX002 (ip), vehicle: Klucel (hydroxypropylcellulose) (HPC)) was 100 % of control.

`NC(=S)c1nn(C2OC(CO)C(O)C2O)c2ncnc(N)c12` (stereo not given) was tested, and the T/C (endpoint: mean survival time, dose: 0.78 mg/kg/injection, schedule: Q01DX009 (ip), vehicle: saline) was 122 % of control, the T/C (endpoint: mean survival time, dose: 3.12 mg/kg/injection, schedule: Q01DX009 (ip), vehicle: saline) was 173 % of control and the T/C (endpoint: mean survival time, dose: 6.25 mg/kg/injection, schedule: Q01DX009 (ip), vehicle: saline) was 89 % of control.

`O=C(Nc1ccc(S(=O)(=O)NC2CCCCC2)cc1)Oc1ccc([N+](=O)[O-])cc1` was tested, and the T/C [13] was 96 % of control, the T/C [14] was 100 % of control and the T/C [15] was 100 % of control.

In the case of `NC(=O)/C=C\C(N)=O`, the T/C (endpoint: mean survival time, dose: 50.0 mg/kg/injection, schedule: Q01DX009 (ip), vehicle: saline) is reported as 103 % of control, the T/C (endpoint: mean survival time, dose: 50.0 mg/kg/injection, schedule: Q04DX003 (ip), vehicle: saline) is reported as 100 % of control and the T/C [1] is reported as 99 % of control. The T/C [4] was 104 % of control and the T/C [5] was 99 % of control.

— PubChem BioAssay AID248 (DTP/NCI, 2004)
